Results taken from PubChem BioAssay (NCI).
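Abbreviation: GI50, concentration required for 50% inhibition of growth. TGI denotes the concentration required for complete inhibition of growth.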

What was measured:
Assay in all cases: DTP human tumour cell line panel, 384-well format
MOLT-4 leukemia = test system: MOLT-4 leukemia
SNB-75 CNS = test system: SNB-75 CNS
OVCAR-5 ovarian = test system: OVCAR-5 ovarian
HOP-92 NSCLC = test system: HOP-92 NSCLC
DU-145 prostate = test system: DU-145 prostate
SK-MEL-28 melanoma = test system: SK-MEL-28 melanoma
SK-OV-3 ovarian = test system: SK-OV-3 ovarian
SN12C renal = test system: SN12C renal
SW-620 colon = test system: SW-620 colon
RPMI-8226 leukemia = test system: RPMI-8226 leukemia
HCC-2998 colon = test system: HCC-2998 colon
LOX IMVI melanoma = test system: LOX IMVI melanoma
K-562 leukemia = test system: K-562 leukemia

C1=C/COCc2cc(ccc2OCCN2CCCC2)Nc2nccc(n2)-c2cccc(c2)COC/1
GI50 (MOLT-4 leukemia): 0.563 µM | TGI (MOLT-4 leukemia): 1.29 µM | GI50 (SNB-75 CNS): 1.61 µM | TGI (SNB-75 CNS): 2.98 µM | GI50 (OVCAR-5 ovarian): 0.778 µM | TGI (OVCAR-5 ovarian): 2.64 µM | GI50 (HOP-92 NSCLC): 1.6 µM | TGI (HOP-92 NSCLC): 3.91 µM | GI50 (DU-145 prostate): 1.06 µM | TGI (DU-145 prostate): 3.43 µM | GI50 (SK-MEL-28 melanoma): 1.19 µM | TGI (SK-MEL-28 melanoma): 2.44 µM | GI50 (SK-OV-3 ovarian): 0.888 µM | TGI (SK-OV-3 ovarian): 2.35 µM | GI50 (SN12C renal): 0.704 µM | TGI (SN12C renal): 2.01 µM | GI50 (SW-620 colon): 1.52 µM | TGI (SW-620 colon): 3.4 µM | GI50 (RPMI-8226 leukemia): 1.66 µM | TGI (RPMI-8226 leukemia): 3.03 µM | GI50 (HCC-2998 colon): 1.35 µM | TGI (HCC-2998 colon): 2.72 µM | GI50 (LOX IMVI melanoma): 0.842 µM | TGI (LOX IMVI melanoma): 2.08 µM | GI50 (K-562 leukemia): 0.789 µM | TGI (K-562 leukemia): 2.14 µM
